Patent US8557839B2, “Fused ring azadecalin glucocorticoid receptor modulators” (Corcept Therapeutics, Inc., priority 2004, dated 2013)

What was measured:
[1] = molecular target: T1, glucocorticoid receptors (Homo sapiens, UniProt P04150); assay: GR functional assay using SW1353/MMTV-5 cells (dexamethasone-induced luciferase); assay type: cell-based; design: contains endogenous glucocorticoid receptors; endogenous in cells; host or cells: SW1353/MMTV-5 (human chondrosarcoma, stably carrying the pMAMneo-Luc reporter); details: read-out: GR Functional
T1 sequence (P04150 1-777): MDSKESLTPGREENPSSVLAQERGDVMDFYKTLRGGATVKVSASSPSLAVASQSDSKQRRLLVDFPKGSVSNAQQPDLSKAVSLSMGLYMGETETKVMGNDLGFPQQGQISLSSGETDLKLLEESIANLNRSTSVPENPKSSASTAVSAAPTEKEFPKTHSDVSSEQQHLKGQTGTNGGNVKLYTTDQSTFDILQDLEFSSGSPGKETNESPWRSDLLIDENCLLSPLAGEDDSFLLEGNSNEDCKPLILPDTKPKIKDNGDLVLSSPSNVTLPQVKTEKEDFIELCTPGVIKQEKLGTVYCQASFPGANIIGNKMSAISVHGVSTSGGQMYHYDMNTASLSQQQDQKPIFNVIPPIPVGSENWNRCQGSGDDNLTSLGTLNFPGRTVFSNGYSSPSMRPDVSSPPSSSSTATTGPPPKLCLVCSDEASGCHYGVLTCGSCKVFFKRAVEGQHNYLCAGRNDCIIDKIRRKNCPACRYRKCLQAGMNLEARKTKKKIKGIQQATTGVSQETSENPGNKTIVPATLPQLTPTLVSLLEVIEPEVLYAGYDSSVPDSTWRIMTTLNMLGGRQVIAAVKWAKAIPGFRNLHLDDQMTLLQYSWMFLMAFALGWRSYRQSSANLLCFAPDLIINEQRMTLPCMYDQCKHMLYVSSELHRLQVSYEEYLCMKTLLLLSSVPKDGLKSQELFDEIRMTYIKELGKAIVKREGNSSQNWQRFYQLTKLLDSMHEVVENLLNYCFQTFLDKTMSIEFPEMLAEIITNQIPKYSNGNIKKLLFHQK
Experimental: SW1353/MMTV-5 is an adherent human chondrosarcoma cell line that contains endogenous glucocorticoid receptors. It was transfected with a plasmid (pMAMneo-Luc) encoding firefly luciferase located behind a glucocorticoid-responsive element (GRE) derived from a viral promoter (long terminal repeat of mouse mammary tumor virus). A stable cell line SW1353/MMTV-5 was selected with geneticin, which was required to maintain this plasmid.
SW1353/MMTV-5 cells were distributed in 96-well plates and incubated in medium (without geneticin) for 24 hrs (in the absence of CO2).

[2] = molecular target: T1, glucocorticoid receptors; assay: Glucocorticoid receptor binding displacement assay with 3H-dexamethasone; design: This GR was a full-length steroid hormone receptor; host or cells: recombinant baculovirus-infected insect cells; details: Ki from IC50 by Cheng-Prusoff; 2.5 nM 3H-dexamethasone; read-out: GR Binding
Experimental: The source of the receptor was recombinant baculovirus-infected insect cells. This GR was a full-length steroid hormone receptor likely to be associated with heat-shock and other endogenous proteins.
For the Primary Screen, test compounds were tested at 1 μM in duplicate. These compounds were diluted from 10 mM stock in 100% DMSO. After dilution to 100 μM, 5 μl were added to 245 μl assay buffer to obtained 2 μM compound and 2% DMSO.
For the IC50 determinations, test compounds were tested at 6 concentrations in duplicate (concentration range depends on % inhibition binding that was obtained in the Primary Screen). Test compounds were diluted from 10 mM stock in 100% DMSO. The tested solutions were prepared at 2× final assay concentration in 2% DMSO/assay buffer.
All reagents and the assay plate were kept on ice during the addition of reagents. […] After the additions, the incubation mixture was mixed and incubated for 2.5 hrs at 4° C.
After 2.5 hrs incubation, unbound counts were removed with dextran coated charcoal (DCC) as follows: 25 μl of DCC solution (10% DCC in assay buffer) was added to all wells and mixed (total volume 225 μl). The plate was centrifuged at 4000 rpm for 10 minutes at 4° C. 75 μl of the supernatants (i.e.⅓ of total volume) was carefully pipetted into an optiplate. 200 μl of scintillation cocktail were added (Microscint-40, Packard Bioscience. B.V.). The plate was vigorously shaken for approx. 10 minutes and counted on Topcount.
The IC50 values were converted to Ki (the inhibition constant) using the Cheng-Prusoff equation.
Reagents: Assay buffer: 10 mM potassium phosphate buffer pH 7.6 containing 5 mM DTT, 10 mM sodium molybdate, 100 μM EDTA and 0.1% BSA.

[3] = SW1353/MMTV-5 cells, antagonism of 50 nM dexamethasone, luciferase

| Compound | Ki [1] [nM] | Ki [2] [nM] | Ki [1, 3] [nM] |
| --- | --- | --- | --- |
| COC(=O)[C@]12Cc3cnn(-c4ccc(F)cc4)c3C=C1CCN(S(=O)(=O)c1ccc(C(C)(C)C)cc1)C2 | 10 to 100 | < 10 |  |
| CCCCn1ncc2c1C=C1CCN(S(=O)(=O)c3ccc(C(C)(C)C)cc3)C[C@@]1(C(=O)OC)C2 | > 100 | 10 to 100 |  |
| COC(=O)[C@]12Cc3cnn(C(C)C)c3C=C1CCN(S(=O)(=O)c1ccc(C(C)(C)C)cc1)C2 | > 100 | 10 to 100 |  |
| CC(C)(C)c1ccc(S(=O)(=O)N2CCC3=Cc4c(cnn4-c4ccc(F)cc4)C[C@]3(CO)C2)cc1 | 10 to 100 | < 10 |  |
| O=S(=O)(c1ccc(F)cc1)N1CCC2=Cc3c(cnn3-c3ccc(F)cc3)C[C@]2(CO)C1 | > 100 | < 10 |  |
| Cc1ccc(S(=O)(=O)N2CCC3=Cc4c(cnn4-c4ccc(F)cc4)C[C@]3(CO)C2)cc1 | 10 to 100 | < 10 |  |
| COC[C@]12Cc3cnn(-c4ccc(F)cc4)c3C=C1CCN(S(=O)(=O)c1ccc(C(C)(C)C)cc1)C2 | < 10 | < 10 |  |
| COCCOC[C@]12Cc3cnn(-c4ccc(F)cc4)c3C=C1CCN(S(=O)(=O)c1ccc(C(C)(C)C)cc1)C2 | < 10 | < 10 |  |
| O=S(=O)(c1ccccc1)N1CCC2=Cc3c(cnn3-c3ccc(F)cc3)C[C@]2(COCCO)C1 | 10 to 100 | < 10 |  |
| CCOC[C@]12Cc3cnn(-c4ccc(F)cc4)c3C=C1CCN(S(=O)(=O)c1ccc(C(C)(C)C)cc1)C2 | < 10 | < 10 |  |
| CC(C)(C)c1ccc(S(=O)(=O)N2CCC3=Cc4[nH]ncc4CC3(Cc3ccccc3)C2)cc1 (centres unmarked) [drawing 229] |  | < 10 | 10 to 100 |
| O=S(=O)(c1ccc(N2CCOCC2)cc1)N1CCC2=Cc3[nH]ncc3CC2(Cc2ccccc2)C1 (centres unmarked) [drawing 230] |  | < 10 | > 100 |
| CN1CCOc2cc(S(=O)(=O)N3CCC4=Cc5[nH]ncc5CC4(Cc4ccccc4)C3)ccc21 (centres unmarked) [drawing 231] |  | < 10 | > 100 |
| Cn1cc2c(n1)C=C1CCN(S(=O)(=O)c3ccc(C(C)(C)C)cc3)CC1(Cc1ccccc1)C2 (centres unmarked) [drawing 232] | > 100 | < 10 |  |
| CC(C)(C)c1ccc(S(=O)(=O)N2CCC3=Cc4c(cnn4-c4ccc(F)cc4)CC3(Cc3ccccc3)C2)cc1 (centres unmarked) [drawing 233] | 10 to 100 | < 10 |  |
| CC(C)(C)c1ccc(S(=O)(=O)N2CCC3=Cc4c(cnn4Cc4ccccc4)CC3(Cc3ccccc3)C2)cc1 (centres unmarked) [drawing 237] | > 100 | < 10 |  |

| Compound | Ki [1] [nM] | Ki [2] [nM] | Ki [1, 3] [nM] |
| --- | --- | --- | --- |
| CC(C)(C)c1ccc(S(=O)(=O)N2CCC3=Cc4c(cnn4-c4ccc(C#N)cc4)CC3(Cc3ccccc3)C2)cc1 (centres unmarked) [drawing 239] | 10 to 100 | < 10 |  |
| CC(C)(C)c1ccc(S(=O)(=O)N2CCC3=Cc4c(cnn4-c4ccc(S(N)(=O)=O)cc4)CC3(Cc3ccccc3)C2)cc1 (centres unmarked) [drawing 240] | > 100 | 10 to 100 |  |
| CC(C)(C)c1ccc(S(=O)(=O)N2CCC3=Cc4c(cnn4Cc4cccc(O)c4)CC3(Cc3ccccc3)C2)cc1 (centres unmarked) [drawing 241] | > 100 | > 100 |  |
| Fc1ccc(-n2ncc3c2C=C2CCN(Cc4ccccc4)CC2(Cc2ccccc2)C3)cc1 (centres unmarked) [drawing 242] | > 100 | 10 to 100 |  |
| COc1ccc(CC23Cc4cnn(-c5ccc(F)cc5)c4C=C2CCN(Cc2ccccc2)C3)cc1 (centres unmarked) [drawing 244] | > 100 | < 10 |  |
| CC(C)(C)c1ccc(S(=O)(=O)N2CCC3=Cc4[nH]ncc4CC3(Cc3ccccc3)C2)cc1 (centres unmarked) [drawing 245] | 10 to 100 | < 10 |  |
| O=S(=O)(c1ccc(N2CCOCC2)cc1)N1CCC2=Cc3[nH]ncc3CC2(Cc2ccccc2)C1 (centres unmarked) [drawing 246] | > 100 | < 10 |  |
| CN1CCOc2cc(S(=O)(=O)N3CCC4=Cc5[nH]ncc5CC4(Cc4ccccc4)C3)ccc21 (centres unmarked) [drawing 247] | > 100 | < 10 |  |
| Cn1cc2c(n1)C=C1CCN(S(=O)(=O)c3ccc(C(C)(C)C)cc3)CC1(Cc1ccccc1)C2 (centres unmarked) [drawing 248] |  | < 10 | > 100 |
| CC(C)(C)c1ccc(S(=O)(=O)N2CCC3=Cc4c(cnn4-c4ccc(F)cc4)CC3(Cc3ccccc3)C2)cc1 (centres unmarked) [drawing 249] |  | < 10 | 10 to 100 |
| CC(C)(C)c1ccc(S(=O)(=O)N2CCC3=Cc4c(cnn4Cc4ccccc4)CC3(Cc3ccccc3)C2)cc1 (centres unmarked) [drawing 253] |  | < 10 | > 100 |
| CC(C)(C)c1ccc(S(=O)(=O)N2CCC3=Cc4c(cnn4-c4ccc(C#N)cc4)CC3(Cc3ccccc3)C2)cc1 (centres unmarked) [drawing 255] |  | < 10 | 10 to 100 |
| CC(C)(C)c1ccc(S(=O)(=O)N2CCC3=Cc4c(cnn4-c4ccc(S(N)(=O)=O)cc4)CC3(Cc3ccccc3)C2)cc1 (centres unmarked) [drawing 256] |  | 10 to 100 | > 100 |
| Fc1ccc(-n2ncc3c2C=C2CCN(Cc4ccccc4)CC2(Cc2ccccc2)C3)cc1 (centres unmarked) [drawing 258] |  | 10 to 100 | > 100 |
| COc1ccc(CC23Cc4cnn(-c5ccc(F)cc5)c4C=C2CCN(Cc2ccccc2)C3)cc1 (centres unmarked) [drawing 260] |  | < 10 | > 100 |
